This passage reports Ki and IC50 results from patent US5646000A, “Compounds and methods for identifying activated platelets” (Merck & Co., Inc., priority 1994, dated 1997).

Where two headings read alike, the source gives them in different places.

The target in assay [1] is active form of GP IIb/IIIa (Homo sapiens, UniProt P05106+P08514). In words: Fluorescence displacement of probe 2-8 from active form of purified GP IIb/IIIa. It is filed as binding. As to the method:
The purified glycoprotein IIb/IIIa (final concentration 0.64 μM, active form which binds to RGDS affinity column) was mixed with fluorescent antagonist 2-8 (final concentration 1 μM) in a fluorescence cell and fluorescence recorded (excitation wavelength 340 nm, emission range 360-600 nm).

The subject of assay [2] is ADP-stimulated platelets. In words: Fibrinogen Receptor Antagonist Assay: ADP-stimulated platelet aggregation (gel-filtered human platelets). Type of assay: cell-based. The following applies: gel-filtered human platelets 2×10^8 per ml, fibrinogen 100 μg/ml, Ca^2+ 1 mM, 10 μM ADP, 37° C. As to the method: The fibrinogen receptor antagonist activity is based on evaluation of inhibition of ADP-stimulated platelets. Aggregation requires that fibrinogen bind to and occupy the fibrinogen receptor site. Inhibitors of fibrinogen binding inhibit aggregation.
Platelet aggregation was measured at 37° C. in a Chronolog aggregometer. The reaction mixture contained gel-filtered human platelets (2×10^8 per ml), fibrinogen (100 μg/ml), Ca^2+ (1 mM), and the compound to be tested. The aggregation was initiated by adding 10 μM ADP after the other components had been added. The reaction was allowed to proceed for at least 2 minutes.

The target of assay [3] is inactive form of GP IIb/IIIa (unactivated GP IIb/IIIa) (Homo sapiens, UniProt P05106+P08514). In words: Fluorescence displacement of probe 2-8 from inactive (unactivated) form of GP IIb/IIIa. It is filed as binding.
Where [4] appears, read: unactivated GP IIb/IIIa (Table 1), read-out: Ki (nM) (unactivated GP IIb/IIIa).

Sequence of inactive form of GP IIb/IIIa (unactivated GP IIb/IIIa) (P08514 32-887 limits assumed): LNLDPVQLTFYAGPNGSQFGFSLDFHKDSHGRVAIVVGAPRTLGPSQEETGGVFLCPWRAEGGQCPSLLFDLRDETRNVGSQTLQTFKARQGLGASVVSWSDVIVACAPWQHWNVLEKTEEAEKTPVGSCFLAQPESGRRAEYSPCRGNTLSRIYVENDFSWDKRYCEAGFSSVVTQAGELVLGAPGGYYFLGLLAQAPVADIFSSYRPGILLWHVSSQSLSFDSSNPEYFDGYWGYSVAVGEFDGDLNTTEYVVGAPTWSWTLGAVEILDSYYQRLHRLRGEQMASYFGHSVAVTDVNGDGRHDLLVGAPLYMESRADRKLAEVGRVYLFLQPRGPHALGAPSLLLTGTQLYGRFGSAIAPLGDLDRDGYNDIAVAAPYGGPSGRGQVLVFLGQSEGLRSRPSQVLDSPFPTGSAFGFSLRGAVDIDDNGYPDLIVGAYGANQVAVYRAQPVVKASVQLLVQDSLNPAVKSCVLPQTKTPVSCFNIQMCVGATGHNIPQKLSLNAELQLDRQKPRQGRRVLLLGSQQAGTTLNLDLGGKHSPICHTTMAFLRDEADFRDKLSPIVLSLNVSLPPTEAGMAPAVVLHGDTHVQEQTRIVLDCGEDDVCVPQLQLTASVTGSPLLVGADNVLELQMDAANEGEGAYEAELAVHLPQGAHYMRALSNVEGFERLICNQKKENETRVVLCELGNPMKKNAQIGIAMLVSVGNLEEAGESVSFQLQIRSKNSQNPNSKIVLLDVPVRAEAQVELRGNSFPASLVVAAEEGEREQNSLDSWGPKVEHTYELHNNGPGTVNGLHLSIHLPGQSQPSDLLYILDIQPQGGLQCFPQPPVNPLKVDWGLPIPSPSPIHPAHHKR
Sequence of inactive form of GP IIb/IIIa (unactivated GP IIb/IIIa) (P08514 891-1039 partner limits assumed): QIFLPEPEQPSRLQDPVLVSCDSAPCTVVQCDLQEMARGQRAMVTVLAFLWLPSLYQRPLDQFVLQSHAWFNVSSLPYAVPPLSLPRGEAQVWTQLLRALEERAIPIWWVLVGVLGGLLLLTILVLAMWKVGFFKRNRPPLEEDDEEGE
Sequence of inactive form of GP IIb/IIIa (unactivated GP IIb/IIIa) (P05106 27-788): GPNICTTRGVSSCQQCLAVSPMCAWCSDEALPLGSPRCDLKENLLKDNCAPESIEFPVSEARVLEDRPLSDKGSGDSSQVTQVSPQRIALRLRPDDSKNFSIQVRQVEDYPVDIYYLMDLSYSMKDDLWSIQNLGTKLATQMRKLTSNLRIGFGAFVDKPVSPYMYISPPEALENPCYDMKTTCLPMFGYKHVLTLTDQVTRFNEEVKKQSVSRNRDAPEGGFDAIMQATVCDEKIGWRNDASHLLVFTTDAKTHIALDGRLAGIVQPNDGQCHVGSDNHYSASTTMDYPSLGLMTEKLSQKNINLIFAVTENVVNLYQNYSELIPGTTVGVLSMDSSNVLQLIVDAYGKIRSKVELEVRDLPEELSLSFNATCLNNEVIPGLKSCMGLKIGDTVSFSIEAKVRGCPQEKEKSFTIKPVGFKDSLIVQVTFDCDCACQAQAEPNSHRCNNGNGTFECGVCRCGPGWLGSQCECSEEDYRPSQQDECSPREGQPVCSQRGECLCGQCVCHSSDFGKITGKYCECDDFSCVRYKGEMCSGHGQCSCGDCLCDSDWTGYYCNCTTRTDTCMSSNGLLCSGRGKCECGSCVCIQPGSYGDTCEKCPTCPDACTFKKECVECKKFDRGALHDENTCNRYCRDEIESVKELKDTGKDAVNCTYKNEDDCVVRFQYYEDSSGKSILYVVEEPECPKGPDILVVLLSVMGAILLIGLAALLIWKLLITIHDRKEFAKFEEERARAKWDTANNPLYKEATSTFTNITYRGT
Sequence of active form of GP IIb/IIIa (P08514 32-887 limits assumed): as the sequence (P08514 32-887 limits assumed) above
Sequence of active form of GP IIb/IIIa (P08514 891-1039 partner limits assumed): as the sequence (P08514 891-1039 partner limits assumed) above
Sequence of active form of GP IIb/IIIa (P05106 27-788): as the sequence (P05106 27-788) above

Regarding `CN(C)c1cccc2c(S(=O)(=O)N[C@@H](CNC(=O)c3ccc4c(c3)C(=O)N(CCC3CCNCC3)C4)C(=O)O)cccc12` [Compound 2-8, 1H-Isoindole-5-carboxamide, 2,3-dihydro-N-[2(S)-dansylamino-3-aminopropionic acid]-2-[2-(4-piperidinyl)ethyl]-3-oxo], the Ki in assay [1] (active form of GP IIb/IIIa, binds to RGDS affinity column, read-out: Ki of fluorescence antagonist 2-8 (used for the calculation)) is 3.7 nM.
For orientation: IC50 means the concentration that inhibits the measured activity by half. Regarding `O=C(O)CCNC(=O)c1ccc2c(c1)C(=O)N(CCC1CCNCC1)C2` [Compound A, 2,3-Dihydro-N-(2-carboxyethyl)-2-[2-(4-piperidinyl)ethyl]-3-oxo-1-H-isoindole-5-carboxamide], in assay [2], the IC50 was 27 nM. Further, the Ki in assay [3] (setting [4]) came to 99 nM.
On to `O=C(O)C[C@@H](CCc1c[nH]c2ccccc12)NC(=O)CNC(=O)CCCC1CCNCC1` [Compound B, Pib-Gly-3(R)-[2(indol-3-yl)ethyl]β-alanine hydrogen chloride], for which the Ki in assay [1] (GP IIb/IIIa 0.64 μM, probe 2-8 1 μM, excitation 340 nm, change in fluorescence at 550 nm, read-out: Ki for nonfluorescent antagonist toward the active form of GP IIb/IIIa) amounted to 4 nM; in assay [3] (inactive form, does not bind to RGDS affinity column, displacement of 2-8, read-out: Ki on inactive form of GP IIb/IIIa), 470 nM. Also, in assay [2], the IC50 was 94 nM.
In assay [2], `CCCCS(=O)(=O)N[C@@H](CNC(=O)c1ccc2c(c1)C(=O)N(CCC1CCNCC1)C2)C(=O)O` [Compound D, 1-H-isoindole-5-carboxamide, 2,3 dihydro-N-[3-(2(S)-n-butylsulfonylamino)propionic acid]-2-[2-(4-piperidinyl)ethyl]-3-oxo] registered an IC50 of 21 nM. In addition, the Ki in assay [3] (setting [4]) was found to be 2.4 nM.
Compound `O=C(NC[C@H](NS(=O)(=O)c1cccnc1)C(=O)O)c1cc2cc(CCC3CCNCC3)sc2s1` [Compound E, 5-[2-(Piperidin-4-yl)ethyl]thieno[2,3-b]thiophene-2-N-[3-2(S)-(3-pyridylsulfonylamino)propionic acid] carboxamide] displayed a half-inhibitory concentration (IC50) in assay [2] of 8 nM. In addition, the Ki in assay [3] (setting [4]) is at most 2.7 nM.
